According to patent US6969730B2, “Amines as histamine-3 receptor ligands and their therapeutic applications” (Abbott Laboratories, priority 2001, dated 2005):

Target: T1, histamine-3 receptors (H3 receptor) (Rattus norvegicus, UniProt Q9QYN8)
T1 construct: from tissue; host or cells: male Sprague-Dawley rat brain cortex membranes
Assay: (3H)-N-α-methylhistamine binding to rat cortical membranes (histamine-3 receptor ligands)
Conditions: male Sprague-Dawley rat brain cortical membranes; (3H)-N-α-methylhistamine ~0.6 nM; 30 minutes at 25° C.; Cheng-Prusoff
Procedure: Briefly, male Sprague-Dawley rat brain cortices were homogenized (1 g tissue/10 mL buffer) in 50 mM Tris-HCl/5 mM EDTA containing protease inhibitor cocktail (Calbiochem) using a polytron set at 20,500 rpm. Homogenates were centrifuged for 20 minutes at 40,000×g. The supernatant was decanted, and pellets were weighed. The pellet was resuspended by polytron homogenization in 40 mL 50 mM Tris-HCl/5 mM EDTA with protease inhibitors and centrifuged for 20 minutes at 40,000×g. […] Rat cortical membranes (12 mg wet weight/tube) were incubated with (^3H)-N-α-methylhistamine (˜0.6 nM) with or without H3 receptor antagonists in a total incubation volume of 0.5 mL of 50 mM Tris-HCl/5 mM EDTA (pH 7.7). Test compounds were dissolved in DSMO to provide a 20 mM solution, serially diluted and then added to the incubation mixture prior to initiating the incubation assay by addition of the membranes. Thioperamide (3 μM) was used to determine nonspecific binding. Binding incubations were conducted for 30 minutes at 25° C. and terminated by addition of 2 mL of ice cold 50 mM Tris-HCl (pH 7.7) and filtration through 0.3% polyethylenimine-soaked Unifilter plates (Packard). These filters were washed 4 additional times with 2 mL of ice-cold 50 mM Tris-HCl and dried for 1 hour. Radioactivity was determined using liquid scintillation counting techniques. Results were analyzed by Hill transformation and Ki values were determined using the Cheng-Prusoff equation.

T1 sequence (Q9QYN8 whole entry): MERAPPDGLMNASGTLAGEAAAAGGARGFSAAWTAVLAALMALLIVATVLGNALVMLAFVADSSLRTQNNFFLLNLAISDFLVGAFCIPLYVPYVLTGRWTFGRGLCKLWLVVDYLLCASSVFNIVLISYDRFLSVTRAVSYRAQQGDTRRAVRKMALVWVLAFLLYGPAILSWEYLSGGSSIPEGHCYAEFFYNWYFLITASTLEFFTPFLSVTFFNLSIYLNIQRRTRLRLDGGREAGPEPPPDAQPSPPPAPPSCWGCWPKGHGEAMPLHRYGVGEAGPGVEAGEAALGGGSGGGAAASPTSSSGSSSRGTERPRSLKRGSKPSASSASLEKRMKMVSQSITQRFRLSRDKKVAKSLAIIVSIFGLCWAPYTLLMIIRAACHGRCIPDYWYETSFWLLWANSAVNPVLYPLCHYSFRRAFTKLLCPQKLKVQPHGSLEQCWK

## CC1CCCCN1CCc1cc2cc(-c3ccc(C#N)cc3)ccc2o1 (stereo not drawn) [Example 6, 4-{2-[2-(2-methyl-1-piperidinyl)ethyl]-1-benzofuran-5-yl}benzonitrile]
  Ki: 44.9 nM

## C[C@@H]1CCCN1CCc1cc2cc(-c3cccnc3)ccc2o1 [Example 134, 3-(2-{2-[(2R)-2-methyl-1-pyrrolidinyl]ethyl}-1-benzofuran-5-yl)pyridine]
  Ki: 3.2 nM

## Cc1cccc(-c2ccc3oc(CCN4CCC[C@H]4C)cc3c2)c1 [Example 116, (2R)-2-methyl-1-{2-[5-(3-methylphenyl)-1-benzofuran-2-yl]ethyl}pyrrolidine]
  Ki: 30 nM

## C[C@@H]1CCCN1CCc1oc2ccc(-c3ccc(C#N)cc3)cc2c1-c1ccco1 [Example 102, 4-(3-(2-furyl)-2-{2-[(2R)-2-methylpyrrolidin-1-yl]ethyl}-1-benzofuran-5-yl)benzonitrile]
  Ki: 18 nM

## C[C@@H]1CCCN1CCc1cc2cc(-c3noc(-c4ccccc4Cl)n3)ccc2o1 [Example 90, 5-(2-chlorophenyl)-3-(2-{2-[(2R)-2-methylpyrrolidin-1-yl]ethyl}-1-benzofuran-5-yl)-1,2,4-oxadiazole]
  Ki: 21 nM

## C[C@@H]1CCCN1CCc1oc2ccc(-c3ccc(C#N)cc3)cc2c1-c1ccsc1C=O [Example 105, 4-(3-(2-formyl-3-thienyl)-2-{2-[(2R)-2-methyl-1-pyrrolidinyl]ethyl}-1-benzofuran-5-yl)benzonitrile]
  Ki: 6 nM

## Cc1cc(-c2ccc3oc(CCN4CCC[C@H]4C)c(Br)c3c2)ccc1C#N [Example 155, 4-(3-bromo-2-{2-[(2R)-2-methyl-1-pyrrolidinyl]ethyl}-1-benzofuran-5-yl)-2-methylbenzonitrile]
  Ki: 16 nM

## C[C@@H]1CCCN1CCc1cc2cc(-c3noc(-c4ccc(F)cc4)n3)ccc2o1 [Example 95, 5-(4-fluorophenyl)-3-(2-{2-[(2R)-2-methylpyrrolidin-1-yl]ethyl}-1-benzofuran-5-yl)-1,2,4-oxadiazole]
  Ki: 12 nM

## C[C@@H]1CCCN1CCc1oc2ccc(-c3ccc(C#N)cc3)cc2c1Cl [Example 156A, 4-(3-chloro-2-{2-[(2R)-2-methyl-1-pyrrolidinyl]ethyl}-1-benzofuran-5-yl)benzonitrile]
  Ki: 3.7 nM

## N#Cc1ccc(-c2ccc3oc(CCN4CCC[C@H]4CF)cc3c2)cc1 [Example 164, 4-(2-{2-[(2S)-2-(fluoromethyl)-1-pyrrolidinyl]ethyl}-1-benzofuran-5-yl)benzonitrile]
  Ki: 24 nM

## 3-{[3-(2-{2-[(2R)-2-methylpyrrolidin-1-yl]ethyl}-1-benzofuran-5-yl)-1,2,4-oxadiazol-5-yl]methyl}benzonitrile [Example 93]
  Ki: 6 nM

## COc1ccc(Cc2nc(-c3ccc4oc(CCN5CCC[C@H]5C)cc4c3)no2)cc1 [Example 92, 5-(4-methoxybenzyl)-3-(2-{2-[(2R)-2-methylpyrrolidin-1-yl]ethyl}-1-benzofuran-5-yl)-1,2,4-oxadiazole]
  Ki: 15 nM

## C[C@@H]1CCCN1CCc1cc2cc(-c3cccc(CO)c3)ccc2o1 [Example 152, [3-(2-{2-[(2R)-2-methyl-1-pyrrolidinyl]ethyl}-1-benzofuran-5-yl)phenyl]methanol]
  Ki: 2.6 nM

## CCCc1nc(-c2ccc3oc(CCN4CCC[C@H]4C)cc3c2)no1 [Example 98, 3-(2-{2-[(2R)-2-methylpyrrolidin-1-yl]ethyl}-1-benzofuran-5-yl)-5-propyl-1,2,4-oxadiazole]
  Ki: 0.7 nM

## C[C@@H]1CCCN1CCc1oc2ccc(-c3ccc(C#N)cc3)cc2c1-c1cccnc1 [Example 103, 4-[2-{2-[(2R)-2-methyl-1-pyrrolidinyl]ethyl}-3-(3-pyridinyl)-1-benzofuran-5-yl]benzonitrile]
  Ki: 13 nM

## C[C@@H]1CCCN1CCc1cc2cc(-c3cccc(C(=O)c4cccc(F)c4)c3)ccc2o1 [Example 151, (3-fluorophenyl)[3-(2-{2-[(2R)-2-methyl-1-pyrrolidinyl]ethyl}-1-benzofuran-5-yl)phenyl]methanone]
  Ki: 53 nM

## Cc1nc(-c2ccc3oc(CCN4CCC[C@H]4C)cc3c2)no1 [Example 100, 5-methyl-3-(2-{2-[(2R)-2-methylpyrrolidin-1-yl]ethyl}-1-benzofuran-5-yl)-1,2,4-oxadiazole]
  Ki: 6 nM

## C[C@@H]1CCCN1CCc1cc2cc(-c3cccc(C=O)c3)ccc2o1 [Example 149, 3-(2-{2-[(2R)-2-methyl-1-pyrrolidinyl]ethyl}-1-benzofuran-5-yl)benzaldehyde]
  Ki: 3.3 nM

## N#Cc1ccc(-c2ccc3oc(CCN4CCCCC4)cc3c2)cc1 [Example 4, 4-{2-[2-(1-piperidinyl)ethyl]-1-benzofuran-5-yl}benzonitrile]
  Ki: 58.8 nM

## 4-(2-{2-[-2,6-dimethylpiperidinyl]ethyl}-1-benzofuran-5-yl)benzonitrile [Example 11]
  Ki: 19.3 nM

## C[C@@H]1CCCN1CCc1cc2cc(-c3noc(Cc4cccs4)n3)ccc2o1 [Example 87, 3-(2-{2-[(2R)-2-methylpyrrolidin-1-yl]ethyl}-1-benzofuran-5-yl)-5-(thien-2-ylmethyl)-1,2,4-oxadiazole]
  Ki: 16 nM

## C[C@@H]1CCCN1CCc1cc2cc(-c3ccc(C(=O)C4CC4)cc3)ccc2o1 [Example 160, cyclopropyl[4-(2-{2-[(2R)-2-methyl-1-pyrrolidinyl]ethyl}-1-benzofuran-5-yl)phenyl]methanone]
  Ki: 7.6 nM

## CC(C)CC(=O)c1cccc(-c2ccc3oc(CCN4CCC[C@H]4C)cc3c2)c1 [Example 148, 3-methyl-1-[3-(2-{2-[(2R)-2-methyl-1-pyrrolidinyl]ethyl}-1-benzofuran-5-yl)phenyl]-1-butanone]
  Ki: 19 nM

## Cc1cc(-c2ccc(C#N)cc2)cc2cc(CCN3CCC[C@H]3C)oc12 [Example 109, 4-(7-methyl-2-{2-[(2R)-2-methyl-1-pyrrolidinyl]ethyl}-1-benzofuran-5-yl)benzonitrile]
  Ki: 10 nM

## C[C@@H]1CCCN1CCc1cc2cc(-n3ccnc3)ccc2o1 [Example 154, 1-(2-{2-[(2R)-2-methyl-1-pyrrolidinyl]ethyl}-1-benzofuran-5-yl)-1H-imidazole]
  Ki: 2 nM

## C[C@@H]1CCCN1CCc1cc2cc(-c3noc(-c4ccc(Cl)cc4)n3)ccc2o1 [Example 89, 5-(4-chlorophenyl)-3-(2-{2-[(2R)-2-methylpyrrolidin-1-yl]ethyl}-1-benzofuran-5-yl)-1,2,4-oxadiazole]
  Ki: 12 nM

## COc1ccccc1-c1ccc2oc(CCN3CCC[C@H]3C)cc2c1 [Example 119, (2R)-1-{2-[5-(2-methoxyphenyl)-1-benzofuran-2-yl]ethyl}-2-methylpyrrolidine]
  Ki: 66 nM

## C[C@@H]1CCCN1CCc1cc2ccc(-c3ccc(C#N)cc3)cc2o1 [Example 86, 4-(2-{2-[(2R)-2-methyl-1-pyrrolidinyl]ethyl}-1-benzofuran-6-yl)benzonitrile]
  Ki: 3.5 nM

## C[C@@H]1CCCN1CCc1cc2cc(-c3ccc(C#N)cc3)cc(F)c2o1 [Example 110, 4-(7-fluoro-2-{2-[(2R)-2-methyl-1-pyrrolidinyl]ethyl}-1-benzofuran-5-yl)benzonitrile]
  Ki: 6 nM

## CON=C(C)c1cccc(-c2ccc3oc(CCN4CCC[C@H]4C)cc3c2)c1 [Example 140, 1-[3-(2-{2-[(2R)-2-methyl-1-pyrrolidinyl]ethyl}-1-benzofuran-5-yl)phenyl]ethanone O-methyloxime]
  Ki: 21 nM
